Laboratory results published in patent publication US9556201B2, “Bicyclic pyridines and analogs as sirtuin modulators” (GLAXOSMITHKLINE LLC, priority 2009, dated 2017).

Columns and labels:
SIRT1 = target: T1, SIRT1 (Homo sapiens, UniProt Q96EB6); experiment: Mass spectrometry based assay to identify modulators of SIRT1 activity (deacetylation of p53-based acetylated peptide substrate); format: biochemical; settings: for Emax: 25 min, SIRT1 activation, read-out: % FOLD ACT. (percent maximum fold activation)
T1 sequence (Q96EB6 1-747): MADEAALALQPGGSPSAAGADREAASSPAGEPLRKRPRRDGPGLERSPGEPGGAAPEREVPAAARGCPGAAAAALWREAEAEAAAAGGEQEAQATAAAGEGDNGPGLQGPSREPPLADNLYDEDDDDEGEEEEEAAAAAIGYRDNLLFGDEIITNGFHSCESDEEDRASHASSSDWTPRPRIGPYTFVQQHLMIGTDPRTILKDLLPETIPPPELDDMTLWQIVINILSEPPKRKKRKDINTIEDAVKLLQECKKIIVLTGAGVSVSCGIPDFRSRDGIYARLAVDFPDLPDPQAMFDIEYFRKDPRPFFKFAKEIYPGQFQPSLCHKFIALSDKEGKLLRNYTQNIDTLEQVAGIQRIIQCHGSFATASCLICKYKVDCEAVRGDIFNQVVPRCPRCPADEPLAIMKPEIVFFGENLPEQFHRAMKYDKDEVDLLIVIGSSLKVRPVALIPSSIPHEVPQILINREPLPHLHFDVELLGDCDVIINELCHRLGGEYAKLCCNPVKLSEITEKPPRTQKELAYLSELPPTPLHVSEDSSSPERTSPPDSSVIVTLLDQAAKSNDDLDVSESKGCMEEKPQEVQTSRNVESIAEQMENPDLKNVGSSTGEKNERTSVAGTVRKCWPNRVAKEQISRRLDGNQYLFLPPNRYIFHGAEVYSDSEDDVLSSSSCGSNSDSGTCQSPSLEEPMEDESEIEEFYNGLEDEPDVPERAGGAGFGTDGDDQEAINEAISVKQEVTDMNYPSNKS
In short: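 His-tagged human SIRT1 (10 nM, E. coli) incubated 25 min at 25 °C with […] p53-derived acetylated 5TMR peptide and 120 μM βNAD+ in pH 8 Tris-acetate buffer, then formic acid-stopped. Mass spectrometry quantifies acetylated vs deacetylated peptide; nicotinamide and DMSO controls.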

TNF = TNF IC50 (column of Table 1; method not in the text shown); format: cell-based

Compound	EC1.5 (concentration giving 1.5-fold activation) (SIRT1) [nM]	Emax (SIRT1) [%]	IC50 (TNF) [µM]
O=C(Nc1cc(OCC(O)CO)ccn1)N1CCc2ccc(-c3cccc(C(F)(F)F)c3)nc21 (stereo not drawn) [Compound 875]	< 1000	> 200	< 20
O=C(Nc1ccnc(OCC(O)CO)n1)N1CCCOc2ccc(-c3cccc(Cl)c3)nc21 (stereo not drawn) [Compound 876]	< 1000	> 200	< 20
O=C(Nc1cccc(N2CC3(COC3)C2)n1)N1CCc2ccc(-c3cccc(C(F)(F)F)c3)nc21 [Compound 877]	< 1000	> 200	< 20
O=C(Nc1cnc(OC[C@H](O)CO)cn1)N1CCCOc2ccc(-c3cccc(Cl)c3)nc21 [Compound 878]	< 1000	> 200	< 20
O=C(Nc1ccc2nccn2c1)N1CCCOc2ccc(-c3cccc(Cl)c3)nc21 [Compound 880]	< 1000	> 200	< 20
O=C(Nc1ccc2nccnc2c1)N1CCCOc2ccc(-c3cccc(Cl)c3)nc21 [Compound 881]	< 1000	> 200	≥ 20
COc1cc(NC(=O)N2CCCOc3ccc(-c4cccc(Cl)c4)nc32)ccn1 [Compound 882]	< 1000	> 200	≥ 20
Cn1cc2ccc(NC(=O)N3CCCOc4ccc(-c5cccc(Cl)c5)nc43)cc2n1 [Compound 883]	< 1000	> 200	< 20
O=C(Nc1cccnc1)N1CCCc2ccc(-c3cccnc3)nc21 [Compound 886]	1000 to 25000	> 200	≥ 20
O=C(Nc1cccnc1)N1CCOc2ccc(-c3cccc(C(F)(F)F)c3)nc21 [Compound 887]	< 1000	> 200	≥ 20
